Reference: patent US6355799B1, “Substituted benzene compounds, process for their preparation, and herbicidal and defoliant compositions containing them” (ISK Americas Incorporated, priority 1997, dated 2002)

How the values were obtained:
Type in all cases: in vivo
[1] = tested on: large crabgrass (Digitaria sanguinalis, DIGSA); experiment: Pre-emerge test, greenhouse herbicide activity screening; conditions: for phytotoxicity rating DIGSA: pre-emerge, 14 days after application, scale 0-100; for Pre-emerge Herbicidal Activity DIGSA: phytotoxicity rating 0-100, 14 days after application
Source text: (§1) A standard greenhouse herbicide activity screening system was used to evaluate the herbicidal efficacy and crop safety of these test compounds. Seven broadleaf weed species including redroot pigweed (Amaranthus retroflexus, AMARE, velvetleaf (Abutilon theophrasti, ABUTH), sicklepod (Cassia obtusifolia, CASOB), ivyleaf morningglory (Ipomoea hederacea, IPOHE), lambsquarters (Chenopodium album, CHEAL), common ragweed (Ambrosia artemisizfolia L., AMBEL), and cocklebur (Xanthium strumarium, XANST) were used as test species. Four grass weed species including green foxtail (Setaria viridis, SETVI), barnyardgrass (Echinochloa crus-galli, ECHCG), johnsongrass (Sorghum halepense, SORHA), and large crabgrass (Digitaria sanguinalis, DIGSA) were also used. In addition, three crop species, field corn (Zea mays L., var. Dekalb 535, CORN), soybean (Glycine max L., var. Pella 86, SOY), and is upland rice (Oryza sp., var. Tebonnet, RICE) were included.
(§2) All plants were grown in 10 cm square plastic pots which were filled with a sandy loam soil mix. For pre-emerge tests, seeds were planted one day prior to application of the test compounds. For post-emerge tests, seeds were planted 8-21 days prior to the test to allow emergence and good foliage development prior to application of the test substances. At the time of the post-emerge application, plants of all species were usually at the 2-3 leaf stage of development.
(§3) All test compounds Were dissolved in acetone and applied to the test units in a volume of 187 l /ha. Test materials were applied at rates ranging from 15 g ai/ha to 1000 g ai/ha using a track sprayer equipped with a TJ8001E even flow flat fan spray nozzle. Plants were arranged on a shelf so that the top of the canopy (post-emerge) or top of the soil surface (pre-emerge) was 40-45 cm below the nozzle. Pressurized air was used to force the test solution through the nozzle as it was mechanically advanced (via electrically driven chain drive) over the top of all test plants/pots. This application simulates a typical commercial field herbicide application.
(§4) In the post-emerge test, a commercial non-ionic surfactant was also included (0.25% v/v) to enhance wetting of the leaf surfaces of target plants. Immediately after application, test units of the pre-emerge applications were watered at the soil surface to incorporate the test materials. Subsequently, these test units were bottom-watered. Post-emerge test units were always bottom-watered.
(§5) At 14 days after application of the test materials, phytotoxicity ratings were recorded. A rating scale of 0-100 was used as previously described in Research Methods in Weed Science, 2nd edition, B. Truelove, Ed., Southern Weed Science Society, Auburn University, Auburn, Ala. 1977. Briefly, “0” corresponds to no damage and “100” corresponds to complete death of all plants in the test unit. This scale was used both to determine efficacy against weed species and damage to crop species. Herbicide activity data for various compounds of this invention, which are shown by compound No. in Tables 1-8, are shown in Tables 11 and 12.

[2] = tested on: barnyardgrass (Echinochloa crus-galli, ECHCG); experiment: as above; conditions: for phytotoxicity rating ECHCG: pre-emerge, 14 days after application, scale 0-100; for Pre-emerge Herbicidal Activity ECHCG: phytotoxicity rating 0-100, 14 days after application
Source text: as §1, §2, §3, §4, §5

[3] = tested on: velvetleaf (Abutilon theophrasti, ABUTH); experiment: as above; conditions: for phytotoxicity rating ABUTH: pre-emerge, 14 days after application, scale 0-100; for Pre-emerge Herbicidal Activity ABUTH: phytotoxicity rating 0-100, 14 days after application
Source text: as §1, §2, §3, §4, §5

[4] = tested on: sicklepod (Cassia obtusifolia, CASOB); experiment: as above; conditions: for phytotoxicity rating CASOB: pre-emerge, 14 days after application, scale 0-100; for Pre-emerge Herbicidal Activity CASOB: phytotoxicity rating 0-100, 14 days after application
Source text: as §1, §2, §3, §4, §5

[5] = tested on: green foxtail (Setaria viridis, SETVI); experiment: as above; conditions: for phytotoxicity rating SETVI: pre-emerge, 14 days after application, scale 0-100; for Pre-emerge Herbicidal Activity SETVI: phytotoxicity rating 0-100, 14 days after application
Source text: as §1, §2, §3, §4, §5

[6] = tested on: lambsquarters (Chenopodium album, CHEAL); experiment: as above; conditions: for phytotoxicity rating CHEAL: pre-emerge, 14 days after application, scale 0-100; for Pre-emerge Herbicidal Activity CHEAL: phytotoxicity rating 0-100, 14 days after application
Source text: as §1, §2, §3, §4, §5

[7] = tested on: ivyleaf morningglory (Ipomoea hederacea, IPOHE); experiment: as above; conditions: for phytotoxicity rating IPOHE: pre-emerge, 14 days after application, scale 0-100; for Pre-emerge Herbicidal Activity IPOHE: phytotoxicity rating 0-100, 14 days after application
Source text: as §1, §2, §3, §4, §5

[8] = tested on: large crabgrass (Digitaria sanguinalis, DIGSA); experiment: Post-emerge test, greenhouse herbicide activity screening; conditions: post-emerge, 14 days after application, rating scale 0-100
Source text: as §1, §2, §3, §4, §5

[9] = tested on: barnyardgrass (Echinochloa crus-galli, ECHCG); experiment: as above; conditions: post-emerge, 14 days after application, rating scale 0-100
Source text: as §1, §2, §3, §4, §5

[10] = tested on: velvetleaf (Abutilon theophrasti, ABUTH); experiment: as above; conditions: post-emerge, 14 days after application, rating scale 0-100
Source text: as §1, §2, §3, §4, §5

[11] = tested on: sicklepod (Cassia obtusifolia, CASOB); experiment: as above; conditions: post-emerge, 14 days after application, rating scale 0-100
Source text: as §1, §2, §3, §4, §5

[12] = tested on: green foxtail (Setaria viridis, SETVI); experiment: as above; conditions: post-emerge, 14 days after application, rating scale 0-100
Source text: as §1, §2, §3, §4, §5

[13] = tested on: lambsquarters (Chenopodium album, CHEAL); experiment: as above; conditions: post-emerge, 14 days after application, rating scale 0-100
Source text: as §1, §2, §3, §4, §5

[14] = tested on: ivyleaf morningglory (Ipomoea hederacea, IPOHE); experiment: as above; conditions: post-emerge, 14 days after application, rating scale 0-100
Source text: as §1, §2, §3, §4, §5

[15] = tested on: redroot pigweed (Amaranthus retroflexus, AMARE); experiment: as above; conditions: post-emerge, 14 days after application
Source text: as §1, §2, §3, §4, §5

[16] = tested on: field corn (Zea mays L., var. Dekalb 535, CORN); experiment: Post-emerge test, crop safety; conditions: post-emerge, 14 days after application, rating scale 0-100
In short: (§6)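 Sandy loam pots; pre-emerge: sown 1 d pre-spray, surface-watered after, then bottom-watered. Post-emerge: sown 8–21 d before, 2–3 leaf stage, + 0.25% v/v NIS, bottom-watered. Acetone, 187 l/ha track spray, 15–1000 g ai/ha. 0–100 injury score, day 14.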

[17] = tested on: upland rice (Oryza sp., var. Tebonnet, RICE); experiment: Post-emerge test, crop safety; conditions: post-emerge, 14 days after application, rating scale 0-100
In short: as §6

[18] = tested on: redroot pigweed (Amaranthus retroflexus, AMARE); experiment: Pre-emerge test, greenhouse herbicide activity screening; conditions: for phytotoxicity rating AMARE: pre-emerge, 14 days after application, scale 0-100; for Pre-emerge Herbicidal Activity AMARE: phytotoxicity rating 0-100, 14 days after application
In short: as §6

[19] = tested on: field corn (Zea mays L., var. Dekalb 535, CORN); experiment: Pre-emerge test, crop safety; conditions: for phytotoxicity rating CORN (crop damage): pre-emerge, 14 days after application, scale 0-100; for Pre-emerge Herbicidal Activity CORN: crop damage rating 0-100, 14 days after application
In short: as §6

[20] = tested on: upland rice (Oryza sp., var. Tebonnet, RICE); experiment: Pre-emerge test, crop safety; conditions: for phytotoxicity rating RICE (crop damage): pre-emerge, 14 days after application, scale 0-100; for Pre-emerge Herbicidal Activity RICE: crop damage rating 0-100, 14 days after application
In short: as §6

[21] = 250 g ai/ha, rating scale 0-100

Cn1c(C(F)(F)F)cc(=O)n(-c2ccc(C#N)cc2NC(=O)C=Cc2ccccc2)c1=O [2-141]
phytotoxicity rating DIGSA ([1]; 63 g ai/ha): 35
phytotoxicity rating DIGSA ([1]; 250 g ai/ha): 70
phytotoxicity rating ECHCG ([2]; 63 g ai/ha): 30
phytotoxicity rating ECHCG ([2]; 250 g ai/ha): 95
phytotoxicity rating ABUTH ([3]; 63 g ai/ha): 100
phytotoxicity rating ABUTH ([3]; 250 g ai/ha): 100
phytotoxicity rating CASOB ([4]; 63 g ai/ha): 30
phytotoxicity rating CASOB ([4]; 250 g ai/ha): 90
phytotoxicity rating SETVI ([5]; 63 g ai/ha): 30
phytotoxicity rating SETVI ([5]; 250 g ai/ha): 70
phytotoxicity rating CHEAL ([6]; 63 g ai/ha): 100
phytotoxicity rating CHEAL ([6]; 250 g ai/ha): 100
phytotoxicity rating IPOHE ([7]; 63 g ai/ha): 40
phytotoxicity rating IPOHE ([7]; 250 g ai/ha): 100
DIGSA phytotoxicity rating ([8]; 63 g ai/ha): 10
DIGSA phytotoxicity rating ([8]; 250 g ai/ha): 30
ECHCG phytotoxicity rating ([9]; 63 g ai/ha): 10
ECHCG phytotoxicity rating ([9]; 250 g ai/ha): 30
ABUTH phytotoxicity rating ([10]; 63 g ai/ha): 100
ABUTH phytotoxicity rating ([10]; 250 g ai/ha): 100
CASOB phytotoxicity rating ([11]; 63 g ai/ha): 50
CASOB phytotoxicity rating ([11]; 250 g ai/ha): 95
SETVI phytotoxicity rating ([12]; 63 g ai/ha): 20
SETVI phytotoxicity rating ([12]; 250 g ai/ha): 40
CHEAL phytotoxicity rating ([13]; 63 g ai/ha): 95
CHEAL phytotoxicity rating ([13]; 250 g ai/ha): 100
IPOHE phytotoxicity rating ([14]; 63 g ai/ha): 100
IPOHE phytotoxicity rating ([14]; 250 g ai/ha): 95
AMARE phytotoxicity rating ([15]; 63 g ai/ha, rating scale 0-100): 95
AMARE phytotoxicity rating [15, 21]: 95
CORN phytotoxicity rating (crop damage) ([16]; 63 g ai/ha): 5
CORN phytotoxicity rating (crop damage) ([16]; 250 g ai/ha): 10
RICE phytotoxicity rating (crop damage) ([17]; 63 g ai/ha): 15
RICE phytotoxicity rating (crop damage) ([17]; 250 g ai/ha): 65
phytotoxicity rating AMARE ([18]; 63 g ai/ha): 100
phytotoxicity rating AMARE ([18]; 250 g ai/ha): 100
phytotoxicity rating CORN (crop damage) ([19]; 63 g ai/ha): 0
phytotoxicity rating CORN (crop damage) ([19]; 250 g ai/ha): 45
phytotoxicity rating RICE (crop damage) ([20]; 63 g ai/ha): 30
phytotoxicity rating RICE (crop damage) ([20]; 250 g ai/ha): 70

COc1c(Cl)cc(F)c(-n2c(=O)cc(C(F)(F)F)n(C)c2=O)c1NC(=O)OCc1ccc2c(c1)OCO2 [4-41]
Pre-emerge Herbicidal Activity DIGSA ([1]; 63 g ai/ha): 100
Pre-emerge Herbicidal Activity DIGSA ([1]; 250 g ai/ha): 100
Pre-emerge Herbicidal Activity ECHCG ([2]; 63 g ai/ha): 80
Pre-emerge Herbicidal Activity ECHCG ([2]; 250 g ai/ha): 90
Pre-emerge Herbicidal Activity ABUTH ([3]; 63 g ai/ha): 100
Pre-emerge Herbicidal Activity ABUTH ([3]; 250 g ai/ha): 100
Pre-emerge Herbicidal Activity CASOB ([4]; 63 g ai/ha): 100
Pre-emerge Herbicidal Activity CASOB ([4]; 250 g ai/ha): 100
Pre-emerge Herbicidal Activity SETVI ([5]; 63 g ai/ha): 100
Pre-emerge Herbicidal Activity SETVI ([5]; 250 g ai/ha): 100
Pre-emerge Herbicidal Activity CHEAL ([6]; 63 g ai/ha): 100
Pre-emerge Herbicidal Activity CHEAL ([6]; 250 g ai/ha): 100
Pre-emerge Herbicidal Activity IPOHE ([7]; 63 g ai/ha): 100
Pre-emerge Herbicidal Activity IPOHE ([7]; 250 g ai/ha): 100
phytotoxicity rating DIGSA ([8]; 63 g ai/ha): 90
phytotoxicity rating DIGSA ([8]; 250 g ai/ha): 100
phytotoxicity rating ECHCG ([9]; 63 g ai/ha): 80
phytotoxicity rating ECHCG ([9]; 250 g ai/ha): 90
phytotoxicity rating ABUTH ([10]; 63 g ai/ha): 100
phytotoxicity rating ABUTH ([10]; 250 g ai/ha): 100
phytotoxicity rating CASOB ([11]; 63 g ai/ha): 100
phytotoxicity rating CASOB ([11]; 250 g ai/ha): 100
phytotoxicity rating SETVI ([12]; 63 g ai/ha): 95
phytotoxicity rating SETVI ([12]; 250 g ai/ha): 95
phytotoxicity rating CHEAL ([13]; 63 g ai/ha): 100
phytotoxicity rating CHEAL ([13]; 250 g ai/ha): 100
phytotoxicity rating IPOHE ([14]; 63 g ai/ha): 100
phytotoxicity rating IPOHE ([14]; 250 g ai/ha): 100
phytotoxicity rating AMARE ([15]; 63 g ai/ha, rating scale 0-100 (0 no damage, 100 complete death)): 100
phytotoxicity rating AMARE [15, 21]: 100
phytotoxicity rating CORN (crop damage) ([16]; 63 g ai/ha): 75
phytotoxicity rating CORN (crop damage) ([16]; 250 g ai/ha): 90
phytotoxicity rating RICE (crop damage) ([17]; 63 g ai/ha): 50
phytotoxicity rating RICE (crop damage) ([17]; 250 g ai/ha): 85
Pre-emerge Herbicidal Activity AMARE ([18]; 63 g ai/ha): 100
Pre-emerge Herbicidal Activity AMARE ([18]; 250 g ai/ha): 100
Pre-emerge Herbicidal Activity CORN ([19]; 63 g ai/ha): 15
Pre-emerge Herbicidal Activity CORN ([19]; 250 g ai/ha): 65
Pre-emerge Herbicidal Activity RICE ([20]; 63 g ai/ha): 40
Pre-emerge Herbicidal Activity RICE ([20]; 250 g ai/ha): 80
